System: TFEB
Test: TFEB nuclear translocation assay, HeLa wt cells
Assay type: cell-based
Settings: 2 hrs compound treatment, Table 1 does not say HeLa wt or TRPML1 KO
Description: For the TFEB nuclear translocation assay, HeLa wt or HeLa TRPML1 KO cells were plated at 2700 cells/well into black-walled, 384-well Cell carrier Ultra tissue culture treated plates in complete media and incubated overnight. The next day, cells are treated for 2 hrs with compounds and incubated at 37° C. Cells were then fixed for 30 minutes at room temperature in 4% final PFA and washed five times with 90 μL PBS. PBS is aspirated from the wells and the cells are blocked with 7.5 μL blocking buffer (1:1 PBS/Odyssey block buffer containing 0.1% triton x-100 and 1% goat serum). After 30-60 minutes of block, 7.5 μL of primary anti-TFEB (rabbit) antibody is added for a final dilution of 1:200 antibody in 15 μL blocking buffer. Plates are incubated overnight at 4° C. The following day, plates are washed again into PBS, 90 μL with 5 washes, all PBS is aspirated from the wells and the cells are incubated for 1 hr in 1:1000 goat-anti rabbit Alexa 488 secondary antibody, also containing 10 μg/mL Hoechst 33342. After the 1 hr room temperature incubation, plates are washed a final time into PBS, sealed with foil and imaged with an automated epifluorescence microscopy (PerkinElmer Operetta CLS). Four different fields were imaged per well using ×20 magnification for DAPI and FITC filter sets. Images were quantified using PerkinElmer Harmony software, briefly: apply flatfield correction (basic/advanced) for input images. Use the Find Nuclei building block with channel set at Hoechst to find the nuclei. Use the Find cytoplasm building block with channel set to Alexa 488 to find the cytoplasm. Use select cell region with Channel set at Alexa 488 and region of interest as Nuclei and define outer border at 0 μm and inner at 45 μm to cover complete nuclei. Use select cell region with Channel set at Alexa 488 and region of interest as ring region and define outer border at −5 μm and inner at 0 μm to define a ring around the nucleus. Use the find calculate intensity parameter to calculate intensity of the nuclear region and the ring region. Define results as Number of nuclei and ratio of A/B where A is Intensity of Nuclei and B is intensity of the ring region.
The compound numbers correspond to the compound numbers above in Tables A or B. Compounds having an activity designated as “++++” provided an AC50 of ≤2.00 μM; compounds having an activity designated as “+++” provided an AC50 of 2.01-8.00 μM; compounds having an activity designated as “++” provided an AC50 of 8.01-9.99 μM; and compounds having an activity designated as “+” provided an AC50 of ≥10.00 μM.

`CC(c1cccc(F)c1N1CCC(CN2C[C@@H](C)O[C@@H](C)C2)CC1)S(=O)(=O)c1ccc(S(=O)(=O)C(F)F)cc1` (single isomer, unassigned) [Compound A-808, 4-((1-(2-(1-((4-((difluoromethyl)sulfonyl)phenyl)sulfonyl)ethyl)-6-fluorophenyl)piperidin-4-yl)methyl)-2,6-dimethylmorpholine] and `CC(c1cccc(C#N)c1N1CCC(CN2C[C@@H](C)O[C@@H](C)C2)CC1)S(=O)(=O)c1ccc(S(=O)(=O)N(C)C)cc1` (single isomer, unassigned) [Compound A-854, 4-((1-(3-cyano-2-(4-((2,6-dimethylmorpholino)methyl)piperidin-1-yl)phenyl)ethyl)sulfonyl)-N,N-dimethylbenzenesulfonamide] cannot be ordered by AC50: at most 2000 nM for the first, at most 2000 nM for the second.

First: C[C@@H]1CN(CC2CCN(c3c(F)cccc3NS(=O)(=O)c3ccc(S(=N)(=O)N(C)C)cc3)CC2)C[C@H](C)O1 (single isomer, unassigned) [Compound A-811, Rel-N-(2-(4-((2,6-dimethylmorpholino)methyl)piperidin-1-yl)-3-fluorophenyl)-4-(N,N-dimethylsulfamidimidoyl)benzenesulfonamide]
Second: C[C@@H]1CN(CC2CCN(c3c(F)cccc3NS(=O)(=O)c3ccc(S(C)(=N)=O)cc3)CC2)C[C@H](C)O1 (single isomer, unassigned) [Compound A-846]
The AC50 of the first is lower: at most 2000 nM for the first, 2010 to 8000 nM for the second.

First: C[C@@H]1CN(CC2CCN(c3c(F)cccc3NS(=O)(=O)c3ccc(S(C)(=N)=O)cc3)CC2)C[C@H](C)O1 (single isomer, unassigned) [Compound A-847]
Second: CC(C1CCN(c2c(F)cccc2NS(=O)(=O)c2ccc(S(=N)(=O)N(C)C)cc2)CC1)N1C[C@@H](C)O[C@@H](C)C1 (single isomer, unassigned) [Compound A-871A]
The AC50 of the first is higher: at least 10000 nM for the first, at most 2000 nM for the second.

First: CC(c1cccc(F)c1N1CCC(CN2C[C@H]3C[C@@H](C2)O3)CC1)S(=O)(=O)c1ccc(S(=O)(=O)N(C)C)cc1 (single isomer, unassigned) [Compound A-849]
Second: CC(C1CCN(c2c(F)cccc2NS(=O)(=O)c2ccc(S(=N)(=O)N(C)C)cc2)CC1)N1C[C@@H](C)O[C@@H](C)C1 (single isomer, unassigned) [Compound A-871B]
The AC50 of the first is higher: 2010 to 8000 nM for the first, at most 2000 nM for the second.

For `CC(C1CCN(c2c(F)cccc2NS(=O)(=O)c2ccc(S(=N)(=O)N(C)C)cc2)CC1)N1C[C@@H](C)O[C@@H](C)C1` (single isomer, unassigned) [Compound A-872], the AC50 was at most 2000 nM.

Same assay, conditions: Homo sapiens, HeLa, 2 h, 2 hrs compound treatment, Table 1 does not say HeLa wt or TRPML1 KO

First: CN(C)S(=O)(=O)c1ccc(S(=O)(=O)Nc2ccccc2N2CCN([C@@H]3C[C@@H]4CC[C@H]3C4)CC2)cc1 (racemic) [Compound A-421, rac-N4-(2-{4-[(1R,2S,4S)-bicyclo[2.2.1]heptan-2-yl]piperazin-1-yl}phenyl)-N1,N1-dimethylbenzene-1,4-disulfonamide]
Second: CN(C)S(=O)(=O)c1ccc(S(=O)(=O)Nc2ccccc2N2CCN(C(=O)[C@@H]3C[C@@H]4CC[C@H]3O4)CC2)cc1 (racemic) [Compound A-449, rac-N1,N1-dimethyl-N4-(2-{4-[(1R,2R,4S)-7-oxabicyclo[2.2.1]heptane-2-carbonyl]piperazin-1-yl}phenyl)benzene-1,4-disulfonamide]
The AC50 of the first is lower: at most 2000 nM for the first, 2010 to 8000 nM for the second.

`CN(C)S(=O)(=O)c1ccc(S(=O)(=O)Nc2ccccc2N2CCN(C(=O)[C@@H]3C[C@H]3C(C)(F)F)CC2)cc1` (racemic) [Compound A-463, rac-N4-(2-{4-[(1R,2R)-2-(1,1-difluoroethyl)cyclopropanecarbonyl]piperazin-1-yl}phenyl)-N1,N1-dimethylbenzene-1,4-disulfonamide] and `CN(C)S(=O)(=O)c1ccc(S(=O)(=O)Nc2ccccc2N2CCN(C(=O)[C@@]34CCC[C@@H]3C4)CC2)cc1` (racemic) [Compound A-477, rac-N4-(2-{4-[(1R,5R)-bicyclo[3.1.0]hexane-1-carbonyl]piperazin-1-yl}phenyl)-N1,N1-dimethylbenzene-1,4-disulfonamide] fall in the same range of AC50: 2010 to 8000 nM for the first, 2010 to 8000 nM for the second.

`C[C@H]1COC[C@H](C)N1CC1CCN(c2c(F)cccc2NS(=O)(=O)c2ccc(S(=O)(=O)N(C)C)cc2)CC1` (racemic) [Compound A-763, N4-(2-{4-[(3,5-dimethylmorpholin-4-yl)methyl]piperidin-1-yl}-3-fluorophenyl)-N1,N1-dimethylbenzene-1,4-disulfonamide] and `C[C@H]1COC[C@H](C)N1C[C@H]1CCN(c2c(F)cccc2NS(=O)(=O)c2ccc(S(=O)(=O)N(C)C)cc2)C1` (relative stereo) [Compound A-896, N4-{2-[(3R)-3-{[3,5-dimethylmorpholin-4-yl]methyl}pyrrolidin-1-yl]-3-fluorophenyl}-N1,N1-dimethylbenzene-1,4-disulfonamide] cannot be ordered by AC50: at most 2000 nM for the first, at most 2000 nM for the second.

`C[C@@H]1C[C@@]2(CCN1c1ccccc1NS(=O)(=O)c1ccc(S(=O)(=O)N(C)C)cc1)COC(C)(C)C2` (racemic) [Compound A-799, N1,N1-dimethyl-N4-(2-((5R,7R)-3,3,7-trimethyl-2-oxa-8-azaspiro[4.5]decan-8-yl)phenyl)benzene-1,4-disulfonamide] and `C[C@@H]1COC[C@@H](C)N1C[C@H]1CCN(c2c(F)cccc2NS(=O)(=O)c2ccc(S(=O)(=O)N(C)C)cc2)C1` (relative stereo) [Compound A-897, N4-{2-[(3R)-3-{[3,5-dimethylmorpholin-4-yl]methyl}pyrrolidin-1-yl]-3-fluorophenyl}-N1,N1-dimethylbenzene-1,4-disulfonamide] cannot be ordered by AC50: at most 2000 nM for the first, at most 2000 nM for the second.

`C[C@H]1CN(CC2CCN(c3c(F)cccc3NS(=O)(=O)c3ccc(S(=O)(=O)N(C)C)cc3)CC2)C[C@H](C)O1` (racemic) [Compound A-843, rel-N1-(2-(4-((2,6-dimethylmorpholino)methyl)piperidin-1-yl)-3-fluorophenyl)-N4,N4-dimethylbenzene-1,4-disulfonamide] and `C[C@@H]1CN(CC2CCN(c3c(F)cccc3NS(=O)(=O)c3ccc(S(=N)(=O)N(C)C)cc3)CC2)C[C@H](C)O1` (single isomer, unassigned) [Compound A-810, Rel-N-(2-(4-((2,6-dimethylmorpholino)methyl)piperidin-1-yl)-3-fluorophenyl)-4-(N,N-dimethylsulfamidimidoyl)benzenesulfonamide] cannot be ordered by AC50: at most 2000 nM for the first, at most 2000 nM for the second.

`C[C@H]1COC[C@H](C)N1CC1CCN(c2c(F)cccc2NS(=O)(=O)c2ccc(S(C)(=O)=O)cc2)CC1` (relative stereo) [Compound A-838, trans-N-(2-(4-((3,5-dimethylmorpholino)methyl)piperidin-1-yl)-3-fluorophenyl)-4-(methylsulfonyl)benzenesulfonamide] and `C[C@H]1COC[C@H](C)N1CC1CCN(c2c(F)cccc2NS(=O)(=O)c2ccc(S(=N)(=O)N(C)C)cc2)CC1` (single isomer, unassigned) [Compound A-833] cannot be ordered by AC50: at most 2000 nM for the first, at most 2000 nM for the second.

First: CC(c1cccc(F)c1N1CCC(CN2C[C@@H](C)O[C@@H](C)C2)CC1)S(=O)(=O)c1ccc(S(=O)(=O)C(F)F)cc1 (single isomer, unassigned) [Compound A-807, 4-((1-(2-(1-((4-((difluoromethyl)sulfonyl)phenyl)sulfonyl)ethyl)-6-fluorophenyl)piperidin-4-yl)methyl)-2,6-dimethylmorpholine]
Second: CC(c1cccc(C#N)c1N1CCC(CN2C[C@@H](C)O[C@@H](C)C2)CC1)S(=O)(=O)c1ccc(S(=O)(=O)N(C)C)cc1 (single isomer, unassigned) [Compound A-845, 4-((1-(3-cyano-2-(4-((2,6-dimethylmorpholino)methyl)piperidin-1-yl)phenyl)ethyl)sulfonyl)-N,N-dimethylbenzenesulfonamide]
The AC50 of the first is lower: at most 2000 nM for the first, 2010 to 8000 nM for the second.

`CC(c1cccc(F)c1N1CCC(CN2C[C@@H](C)O[C@@H](C)C2)CC1)S(=O)(=O)c1ccc2c(c1)CCC2` (single isomer, unassigned) [Compound A-828] and `CC(c1cccc(F)c1N1CCC(CN2C[C@H]3C[C@@H](C2)O3)CC1)S(=O)(=O)c1ccc(S(=O)(=O)N(C)C)cc1` (single isomer, unassigned) [Compound A-848] cannot be ordered by AC50: at most 2000 nM for the first, at most 2000 nM for the second.

`C[C@H]1COC[C@H](C)N1CC1CCN(c2c(F)cccc2NS(=O)(=O)c2ccc(S(=N)(=O)N(C)C)cc2)CC1` (single isomer, unassigned) [Compound A-834] and `CC(C1CCN(c2c(F)cccc2NS(=O)(=O)c2ccc(S(=N)(=O)N(C)C)cc2)CC1)N1C[C@@H](C)O[C@@H](C)C1` (single isomer, unassigned) [Compound A-871] cannot be ordered by AC50: at most 2000 nM for the first, at most 2000 nM for the second.

Source: patent US20230104936A1, “TRPML MODULATORS” (Casma Therapeutics, Inc., priority 2019, published 2023)
